Data taken from paper PMC12959348 (Angewandte Chemie (International ed. in English), 2025).

Columns and labels:
[1] = tested on: bcl2 (DNA, G4) GGGCGCGGGAGGAATTGGGCGGG; experiment: fluorescence polarization (pomalidomide fluorescence); settings: 100 mM K+ (KCl), 10 mM Li-cacodylate, pH 7.4, ligand 0.2 µM, per binding site (two sites per G4)
[2] = tested on: TERRA (RNA, G4) UAAGGGUAAGGGUAAGGGUAAGGG; experiment: as above; settings: 100 mM K+ (KCl), 10 mM Li-cacodylate, pH 7.4, ligand 0.2 µM, per binding site (two sites per G4)
[3] = tested on: telo24 (DNA, G4) TTAGGGTTAGGGTTAGGGTTAGGG; experiment: fluorescence polarization (intrinsic pomalidomide fluorescence); settings: 100 mM KCl; 10 mM Li-cacodylate, pH 7.4; ligand 0.2 µM; fit assumes two sites per G4; per site
[4] = tested on: NRAS (RNA, G4) UGUGGGAGGGGCGGGUCUGGGUGC; experiment: as above; settings: 100 mM KCl; 10 mM Li-cacodylate, pH 7.4; ligand 0.2 µM; fit assumes two sites per G4; per site
[5] = tested on: ssDNA (DNA, single strand) CCCTAACCCTAACCCTAACCCTAA; experiment: as above; settings: 100 mM KCl; 10 mM Li-cacodylate, pH 7.4; ligand 0.2 µM; per site
[6] = tested on: dsDNA (DNA, hairpin) TATAGCTATATTTTTTTATAGCTATA; experiment: as above; settings: 100 mM KCl; 10 mM Li-cacodylate, pH 7.4; ligand 0.2 µM; per site
[7] = tested on: bcl2 (DNA, G4) GGGCGCGGGAGGAATTGGGCGGG; experiment: as above; settings: 100 mM KCl; 10 mM Li-cacodylate, pH 7.4; ligand 0.2 µM; fit assumes two sites per G4; per site
[8] = tested on: VEGFR (DNA, G4) GGGTACCCGGGTGAGGTGCGGGGT; experiment: as above; settings: 100 mM KCl; 10 mM Li-cacodylate, pH 7.4; ligand 0.2 µM; fit assumes two sites per G4; per site
[9] = tested on: PARP1 (DNA, G4) TGGGGTCCGAGGCGGGGCTTGGG; experiment: as above; settings: 100 mM KCl; 10 mM Li-cacodylate, pH 7.4; ligand 0.2 µM; fit assumes two sites per G4; per site
[10] = tested on: 19wt (DNA, G4) GGGGGAGGGGTACAGGGGTACAGGGG; experiment: as above; settings: 100 mM KCl; 10 mM Li-cacodylate, pH 7.4; ligand 0.2 µM; fit assumes two sites per G4; per site
[11] = tested on: c-kit1 (DNA, G4) AGGGAGGGCGCTGGGAGGAGGG; experiment: as above; settings: 100 mM KCl; 10 mM Li-cacodylate, pH 7.4; ligand 0.2 µM; fit assumes two sites per G4; per site
[12] = tested on: VEGF (DNA, G4) CGGGGCGGGCCTTGGGCGGGGT; experiment: as above; settings: 100 mM KCl; 10 mM Li-cacodylate, pH 7.4; ligand 0.2 µM; fit assumes two sites per G4; per site
[13] = tested on: KRAS (DNA, G4) AGGGCGGTGTGGGAATAGGGAA; experiment: as above; settings: 100 mM KCl; 10 mM Li-cacodylate, pH 7.4; ligand 0.2 µM; fit assumes two sites per G4; per site
[14] = tested on: TERRA (RNA, G4) UAAGGGUAAGGGUAAGGGUAAGGG; experiment: as above; settings: 100 mM KCl; 10 mM Li-cacodylate, pH 7.4; ligand 0.2 µM; fit assumes two sites per G4; per site
cereblon (CRBN) = biological target: T1, cereblon (CRBN) (Homo sapiens, UniProt Q96SW2); experiment: TR-FRET displacement of thalidomide-red from Eu3+-cryptate-labeled CRBN; format: binding
T1 construct: Eu3+-cryptate-labeled CRBN
T1 sequence (Q96SW2 whole entry): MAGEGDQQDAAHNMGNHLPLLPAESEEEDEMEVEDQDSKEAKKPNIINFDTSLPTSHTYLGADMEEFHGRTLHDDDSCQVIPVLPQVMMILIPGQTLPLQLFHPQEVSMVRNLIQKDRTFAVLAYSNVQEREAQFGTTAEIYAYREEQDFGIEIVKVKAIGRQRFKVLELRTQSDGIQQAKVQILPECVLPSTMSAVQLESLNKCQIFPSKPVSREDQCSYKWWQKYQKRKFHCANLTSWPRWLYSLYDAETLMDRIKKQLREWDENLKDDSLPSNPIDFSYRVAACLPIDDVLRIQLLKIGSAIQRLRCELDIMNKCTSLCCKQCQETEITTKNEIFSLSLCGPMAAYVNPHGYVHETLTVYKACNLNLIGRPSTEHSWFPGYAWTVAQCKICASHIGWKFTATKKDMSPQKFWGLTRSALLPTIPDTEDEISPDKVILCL
From the text: TR-FRET displacement of thalidomide-red from Eu3+-cryptate-labeled CRBN on cereblon (CRBN) | displacement of thalidomide-red and binding of 1a and 2a to CRBN.

Cc1oc2nc1-c1nc(c(CCCNC(=O)CCOCCOCCOCCOCCNc3cccc4c3C(=O)N(C3CCC(=O)N(C)C3=O)C4=O)o1)-c1nc(co1)C(=O)N[C@@H](CCCCN)c1nc(co1)-c1nc(co1)-c1nc(co1)C(=O)N[C@H]2CCCCN (some centres unmarked)
Kd [1]: 0.278 ± 0.258 µM | Kd [2]: 0.11 ± 0.115 µM | Kd [3]: 0.155 ± 0.029 µM | Kd [4]: 0.096 ± 0.028 µM | Kd [5]: > 1.2 µM | Kd [6]: > 1.2 µM

Cc1oc2nc1-c1nc(c(CCCNC(=O)CNc3cccc4c3C(=O)N(C3CCC(=O)N(C)C3=O)C4=O)o1)-c1nc(co1)C(=O)N[C@@H](CCCCN)c1nc(co1)-c1nc(co1)-c1nc(co1)C(=O)N[C@H]2CCCCN (some centres unmarked)
Kd [3]: 0.033 ± 0.017 µM | Kd [4]: 0.01 ± 0.005 µM | Kd [5]: > 1.2 µM | Kd [6]: > 1.2 µM | Kd [7]: 0.104 ± 0.053 µM | Kd [8]: 0.046 ± 0.018 µM | Kd [9]: 0.039 ± 0.016 µM | Kd [10]: 0.289 ± 0.184 µM | Kd [11]: 0.038 ± 0.041 µM | Kd [12]: 0.004 ± 0.003 µM | Kd [13]: 0.019 ± 0.014 µM | Kd [14]: 0.026 ± 0.022 µM

Cc1oc2nc1-c1nc(c(CCCNC(=O)CNc3cccc4c3C(=O)N(C3CCC(=O)NC3=O)C4=O)o1)-c1nc(co1)C(=O)N[C@@H](CCCCN)c1nc(co1)-c1nc(co1)-c1nc(co1)C(=O)N[C@H]2CCCCN (some centres unmarked) [1a]
IC50 (cereblon (CRBN)): 0.061 µM | Kd [3]: 0.108 ± 0.075 µM | Kd [4]: 0.065 ± 0.002 µM | Kd [5]: > 1.2 µM | Kd [6]: > 1.2 µM | Kd [7]: 0.03 ± 0.013 µM | Kd [8]: 0.027 ± 0.005 µM | Kd [9]: 0.042 ± 0.04 µM | Kd [10]: 0.103 ± 0.027 µM | Kd [11]: 0.039 ± 0.023 µM | Kd [12]: 0.042 ± 0.038 µM | Kd [13]: 0.045 ± 0.035 µM | Kd [14]: 0.072 ± 0.039 µM

Cc1oc2nc1-c1nc(c(CCCNC(=O)CCOCCOCCOCCOCCNc3cccc4c3C(=O)N(C3CCC(=O)NC3=O)C4=O)o1)-c1nc(co1)C(=O)N[C@@H](CCCCN)c1nc(co1)-c1nc(co1)-c1nc(co1)C(=O)N[C@H]2CCCCN (some centres unmarked) [2a]
IC50 (cereblon (CRBN)): 0.09 µM | Kd [3]: 0.356 ± 0.21 µM | Kd [4]: 0.068 ± 0.056 µM | Kd [5]: > 1.2 µM | Kd [6]: > 1.2 µM | Kd [7]: 0.266 ± 0.178 µM | Kd [8]: 0.802 ± 0.325 µM | Kd [9]: 0.817 ± 0.447 µM | Kd [10]: 3.402 ± 0.436 µM | Kd [11]: 0.178 ± 0.022 µM | Kd [12]: 0.046 ± 0.023 µM | Kd [13]: 0.103 ± 0.045 µM | Kd [14]: 0.005 ± 0.004 µM
